Test results reported in ChEMBL document CHEMBL1201862, “PubChem BioAssay data set” (2004).
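48-hour exposure; five concentrations; linearly interpolated endpoints. GI50: concentration for 50% inhibition of growth.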 Active and inactive are the calls of the source. No stated cut-off is given here; in the data, active = GI50 up to about 1.1 µM and inactive = higher.

Columns and labels:
Experiment in all cases: NCI-60 cell line screen, 48 h
A498 = tested on: A498
A549 = tested on: A549
HOP-92 = tested on: HOP-92
K562 = tested on: K562
MCF7 = tested on: MCF7
MDA-MB-231 = tested on: MDA-MB-231
NCI-H460 = tested on: NCI-H460
NCI/ADR-RES = tested on: NCI/ADR-RES
OVCAR-4 = tested on: OVCAR-4
RPMI-8226 = tested on: RPMI-8226
SF-268 = tested on: SF-268
SF-539 = tested on: SF-539
SK-MEL-2 = tested on: SK-MEL-2
SK-MEL-5 = tested on: SK-MEL-5
SK-OV-3 = tested on: SK-OV-3
SNB-75 = tested on: SNB-75
SR = tested on: SR
T47D = tested on: T47D
TK-10 = tested on: TK-10
UACC-257 = tested on: UACC-257

Structure (SMILES): c1ccc(C(c2cccc3c2ccc2ccccc23)C(c2ccccc2)c2cccc3c2ccc2ccccc23)cc1 (stereo not given)
- GI50 (A498): > 100 µM (inactive)
- GI50 (A549): > 100 µM (inactive)
- GI50 (HOP-92): > 100 µM (inactive)
- GI50 (K562): > 100 µM (inactive)
- GI50 (MCF7): > 100 µM (inactive)
- GI50 (MDA-MB-231): > 100 µM (inactive)
- GI50 (NCI-H460): > 100 µM (inactive)
- GI50 (NCI/ADR-RES): > 100 µM (inactive)
- GI50 (OVCAR-4): > 100 µM (inactive)
- GI50 (RPMI-8226): > 100 µM (inactive)
- GI50 (SF-268): > 100 µM (inactive)
- GI50 (SF-539): > 100 µM (inactive)
- GI50 (SK-MEL-2): > 100 µM (inactive)
- GI50 (SK-MEL-5): > 100 µM (inactive)
- GI50 (SK-OV-3): > 100 µM (inactive)
- GI50 (SNB-75): > 100 µM (inactive)
- GI50 (SR): > 100 µM (inactive)
- GI50 (T47D): > 100 µM (inactive)
- GI50 (TK-10): > 100 µM (inactive)
- GI50 (UACC-257): > 100 µM (inactive)

Structure (SMILES): CC(=O)NC(Cc1ccccc1)NC(=O)O (stereo not given)
- GI50 (A498): > 100 µM (inactive)
- GI50 (A549): > 100 µM (inactive)
- GI50 (HOP-92): > 100 µM (inactive)
- GI50 (K562): > 100 µM (inactive)
- GI50 (MCF7): > 100 µM (inactive)
- GI50 (MDA-MB-231): > 100 µM (inactive)
- GI50 (NCI-H460): > 100 µM (inactive)
- GI50 (NCI/ADR-RES): > 100 µM (inactive)
- GI50 (OVCAR-4): > 100 µM (inactive)
- GI50 (RPMI-8226): > 100 µM (inactive)
- GI50 (SF-268): > 100 µM (inactive)
- GI50 (SF-539): > 100 µM (inactive)
- GI50 (SK-MEL-2): > 100 µM (inactive)
- GI50 (SK-MEL-5): > 100 µM (inactive)
- GI50 (SK-OV-3): > 100 µM (inactive)
- GI50 (SNB-75): > 100 µM (inactive)
- GI50 (SR): > 100 µM (inactive)
- GI50 (T47D): > 100 µM (inactive)
- GI50 (TK-10): > 100 µM (inactive)
- GI50 (UACC-257): > 100 µM (inactive)

Structure (SMILES): CN(C)/C=N/S(=O)(=O)c1nn2c(C=O)c(-c3cc4ccccc4oc3=O)nc2s1
- GI50 (A498): 22.3 µM (inactive)
- GI50 (A549): 13 µM (inactive)
- GI50 (HOP-92): 4.08 µM (inactive)
- GI50 (K562): 1.58 µM (inactive)
- GI50 (MCF7): 3.54 µM (inactive)
- GI50 (MDA-MB-231): 10.7 µM (inactive)
- GI50 (NCI-H460): 19.3 µM (inactive)
- GI50 (NCI/ADR-RES): 16.4 µM (inactive)
- GI50 (OVCAR-4): 8.38 µM (inactive)
- GI50 (RPMI-8226): 1.39 µM (inactive)
- GI50 (SF-268): 11.1 µM (inactive)
- GI50 (SF-539): 4.53 µM (inactive)
- GI50 (SK-MEL-2): 11.9 µM (inactive)
- GI50 (SK-MEL-5): 2.77 µM (inactive)
- GI50 (SK-OV-3): 39.8 µM (inactive)
- GI50 (SNB-75): 27.4 µM (inactive)
- GI50 (SR): 5.73 µM (inactive)
- GI50 (T47D): 4.09 µM (inactive)
- GI50 (TK-10): 3.52 µM (inactive)
- GI50 (UACC-257): 11.8 µM (inactive)

Structure (SMILES): COc1ccc2oc(S(=O)(=O)N3CC(CCl)c4ccc(N)cc43)cc2c1 (stereo not given)
- GI50 (A498): 1.48 µM (inactive)
- GI50 (A549): 0.0662 µM (active)
- GI50 (HOP-92): 8.79 µM (inactive)
- GI50 (K562): 0.0225 µM (active)
- GI50 (MCF7): 0.0253 µM (active)
- GI50 (MDA-MB-231): 2.01 µM (inactive)
- GI50 (NCI-H460): 0.0255 µM (active)
- GI50 (NCI/ADR-RES): 0.0377 µM (active)
- GI50 (OVCAR-4): 9.77 µM (inactive)
- GI50 (RPMI-8226): 0.0482 µM (active)
- GI50 (SF-268): 2.01 µM (inactive)
- GI50 (SF-539): 0.0244 µM (active)
- GI50 (SK-MEL-2): < 0.0443 µM (active)
- GI50 (SK-MEL-5): 0.019 µM (active)
- GI50 (SK-OV-3): 0.108 µM (active)
- GI50 (SNB-75): < 0.0215 µM (active)
- GI50 (SR): < 0.01 µM (active)
- GI50 (T47D): > 100 µM (inactive)
- GI50 (TK-10): 46.8 µM (inactive)
- GI50 (UACC-257): 0.766 µM (active)

Structure (SMILES): N#CC(C#N)=Cn1c(=S)[nH]c2ccccc21
- GI50 (A498): > 100 µM (inactive)
- GI50 (A549): > 100 µM (inactive)
- GI50 (HOP-92): 77.8 µM (inactive)
- GI50 (K562): > 100 µM (inactive)
- GI50 (MCF7): > 100 µM (inactive)
- GI50 (MDA-MB-231): > 100 µM (inactive)
- GI50 (NCI-H460): > 100 µM (inactive)
- GI50 (NCI/ADR-RES): > 100 µM (inactive)
- GI50 (OVCAR-4): > 100 µM (inactive)
- GI50 (RPMI-8226): > 100 µM (inactive)
- GI50 (SF-268): > 100 µM (inactive)
- GI50 (SF-539): > 100 µM (inactive)
- GI50 (SK-MEL-2): > 100 µM (inactive)
- GI50 (SK-MEL-5): > 100 µM (inactive)
- GI50 (SK-OV-3): > 100 µM (inactive)
- GI50 (SNB-75): 50.8 µM (inactive)
- GI50 (SR): > 100 µM (inactive)
- GI50 (T47D): > 100 µM (inactive)
- GI50 (TK-10): > 100 µM (inactive)
- GI50 (UACC-257): > 100 µM (inactive)

Structure (SMILES): Cc1csc(-c2cn(C)c3c2C(=O)C(=N)C=C3O)n1
- GI50 (A498): 12.2 µM (inactive)
- GI50 (A549): 2.65 µM (inactive)
- GI50 (HOP-92): > 100 µM (inactive)
- GI50 (K562): 6.28 µM (inactive)
- GI50 (MCF7): 3.27 µM (inactive)
- GI50 (MDA-MB-231): 51.6 µM (inactive)
- GI50 (NCI-H460): 3.97 µM (inactive)
- GI50 (NCI/ADR-RES): 9.98 µM (inactive)
- GI50 (OVCAR-4): > 100 µM (inactive)
- GI50 (RPMI-8226): 2.83 µM (inactive)
- GI50 (SF-268): 15.8 µM (inactive)
- GI50 (SF-539): 5.01 µM (inactive)
- GI50 (SK-MEL-2): 19.8 µM (inactive)
- GI50 (SK-MEL-5): 1.53 µM (inactive)
- GI50 (SK-OV-3): 21.2 µM (inactive)
- GI50 (SNB-75): 1.8 µM (inactive)
- GI50 (SR): 2.52 µM (inactive)
- GI50 (T47D): 17.7 µM (inactive)
- GI50 (TK-10): 46.1 µM (inactive)
- GI50 (UACC-257): 4.26 µM (inactive)
